# According to BindingDB's records for doi:10.1021/jm00032a003 (Merck Research Laboratories, 1994):
# pIC50: −log10 of the molar value.
# Experiment: The compound was tested for binding activity against Cholecystokinin type B receptor from rat […] tissue using [125]BH CCK-8 as radioligand
row,Compound,pIC50
1,CN1C(=O)[C@H](NC(=O)Nc2ccc(C(=O)O)cc2)N=C(c2ccccc2)c2ccccc21,8.17
2,"CC(C)CN1C(=O)[C@H](NC(=O)Nc2ccc(-c3nnn[nH]3)cc2)N=C(c2ccccc2)c2ccccc21 [1-((R)-1-Isobutyl-2-oxo-5-phenyl-2,3-dihydro-1H-benzo[e][1,4]diazepin-3-yl)-3-[4-(1H-tetrazol-5-yl)-phenyl]-urea]",7.62
3,"CN1C(=O)[C@H](NC(=O)Nc2ccc(-c3nnn[nH]3)cc2)N=C(c2ccccc2)c2ccccc21 [1-((R)-1-Methyl-2-oxo-5-phenyl-2,3-dihydro-1H-benzo[e][1,4]diazepin-3-yl)-3-[4-(1H-tetrazol-5-yl)-phenyl]-urea]",6.60
4,"CN1C(=O)[C@H](NC(=O)Nc2ccc(-c3nc(=O)o[nH]3)cc2)N=C(c2ccccc2)c2ccccc21 [1-((R)-1-Methyl-2-oxo-5-phenyl-2,3-dihydro-1H-benzo[e][1,4]diazepin-3-yl)-3-[4-(5-oxo-4,5-dihydro-[1,2,4]oxadiazol-3-yl)-phenyl]-urea]",7.25
5,"CC(C)CN1C(=O)[C@@H](NC(=O)Nc2ccc(-c3nnn[nH]3)cc2)N=C(c2ccccc2)c2ccccc21 [1-((S)-1-Isobutyl-2-oxo-5-phenyl-2,3-dihydro-1H-benzo[e][1,4]diazepin-3-yl)-3-[4-(1H-tetrazol-5-yl)-phenyl]-urea]",9.85
6,"CN1C(=O)[C@@H](NC(=O)Nc2ccc(-c3nnn[nH]3)cc2)N=C(c2ccccc2)c2ccccc21 [1-((S)-1-Methyl-2-oxo-5-phenyl-2,3-dihydro-1H-benzo[e][1,4]diazepin-3-yl)-3-[4-(1H-tetrazol-5-yl)-phenyl]-urea]",8.99
7,"CN1C(=O)[C@@H](NC(=O)Nc2ccc(-c3nc(=O)o[nH]3)cc2)N=C(c2ccccc2)c2ccccc21 [1-((S)-1-Methyl-2-oxo-5-phenyl-2,3-dihydro-1H-benzo[e][1,4]diazepin-3-yl)-3-[4-(5-oxo-4,5-dihydro-[1,2,4]oxadiazol-3-yl)-phenyl]-urea]",9.58
